Columns and labels:
[1] = system: MC38 murine colon carcinoma cells; assay: Anti-tumor efficacy in subcutaneous MC38 syngeneic tumor model (tumor growth, survival); assay type: in vivo, mouse
Protocol: The characteristics of each animal study group, the administration of the test articles and timing, the collection of samples and the overall study design are as shown in Tables 1 and 2:
(68-72° F.) and 40-60% humidity.
Additional aliquots were stored at 4° C. for use within 72 hours of formulation. Just prior to administration, dosing solutions were remixed with gentle inversion.
Group mean tumor volumes were plotted versus time. When an animal exited the study because of tumor size or TR death, its final recorded tumor volume was included with the data used to calculate the mean volume. Mean tumor volumes were calculated for a group until 50% of the animals had exited the study. Kaplan-Meier plots show the percentage of animals in each group remaining in the study versus time.

[2] = system: gene expression in MC38 tumors; assay: RNA-Seq gene expression in MC38 tumors, Day 10; assay type: in vivo, mouse
Protocol: On Day 10 spleens and tumors were collected and weighed from all animals in Groups 7 through 12 and weighed prior to processing. Tissues from four animals in each group were processed to single cell suspensions for flow cytometry analysis at CRL-NC (described below). Tissues from the remaining six animals in each group were preserved in RNAlater, stored at −80° C.
Tumors and spleens were dissected on the appropriate day of the study and were weighed and immediately placed in RNAlater Stabilizing Reagent to preserve the tissue and stored overnight at 4 deg C. The following day, the samples were removed from RNA later and snap frozen and placed at −80 deg C.
Unless otherwise indicated, everything was done on ice and the materials were prechilled on ice. The tissues were homogenized in TRIzol in Precellys tissue grinding tubes. After homogenization, the TRIzol solutions were transferred to 1.5 ml tubes and spun for 5 min at 12,000×g to eliminate the insoluble material. The TRIzol solutions were then transferred to Phasemaker tubes. Chloroform was added, the tubes were capped, and shaken vigorously for 15 seconds. The samples were then incubated at room temperature for 2-15 minutes and centrifuged at 12,000×g for 5 minutes. The upper, aqueous phase was then transferred to a new tube and an equal volume of 70% ethanol was added and it was vortexed. The liquid was then transferred to Qiagen RNeasy columns and centrifuged at 8000×g. DNAse was added to each tube to eliminate any residual DNA. The columns were then washed and eluted as directed by the kit. The RNA concentrations were determined using a Qubit.
Libraries were prepared for sequencing by using the Mouse Transcriptome Ion AmpliSeq Library Preparation on the Ion Chef System as directed by the manufacturer. Eight samples of purified RNA and 8 unique IonCode molecular barcodes were added to a 96 well plate and were prepared at a time. After the libraries were prepared, they were templated and loaded onto an Ion Torrent 540 chip using the Ion 540 Chef Kit from ThermoFisher. The 540 chips were then loaded into a Gene Studio S5 sequencer and sequenced.
Raw sequencing data was processed by Torrent Suite (v5.8.0) software that came with the Gene Studio sequencer (ThermoFisher). For each sample, this program summarized gene expression in a CHP file. The CHP files were then loaded into the Transcriptome Analysis Console (TAC) program (ThermoFisher).

[3] = T cell signaling gene, MC38 tumors Day 10 RNA-Seq, lucitanib 10 mg/kg po, SEQ ID NO. 2 3 mg/kg sc
[4] = Type I/II interferon pathway gene, MC38 tumors Day 10 RNA-Seq, lucitanib 10 mg/kg po, SEQ ID NO. 2 3 mg/kg sc
[5] = antigen presentation gene, MC38 tumors Day 10 RNA-Seq, lucitanib 10 mg/kg po, SEQ ID NO. 2 3 mg/kg sc

Compound: CNC(=O)c1cccc2cc(Oc3ccnc4cc(OCC5(N)CC5)c(OC)cc34)ccc12 [Lucitanib, 6-(7-((1-Aminocyclopropyl)-methoxy)-6-methoxyquinolin-4-yloxy)-N-methyl-1-naphthamide]
- tumor growth inhibition (TGI) ([1]; Day 11, lucitanib monotherapy 10 mg/kg p.o. daily): 100%
- median survival time ([1]; lucitanib monotherapy 10 mg/kg p.o. daily for 28 days, vehicle 15 days): 39 days
- tumor growth outcome (summary in words) ([1]; treatment arm summaries): transient inhibition of tumor growth
- Cd3e mean expression value relative to vehicle group [2, 3]: 2.49
- Cd4 mean expression value relative to vehicle group [2, 3]: 2.67
- Cd8a mean expression value relative to vehicle group [2, 3]: 2.03
- Cd8b1 mean expression value relative to vehicle group [2, 3]: 3.57
- Cd28 mean expression value relative to vehicle group [2, 3]: 5.49
- Cd247 mean expression value relative to vehicle group [2, 3]: 1.44
- Cd3d mean expression value relative to vehicle group [2, 3]: 3.14
- Ctla4 mean expression value relative to vehicle group [2, 3]: 4.10
- H2-Aa mean expression value relative to vehicle group [2, 3]: 1.59
- H2-Ab1 mean expression value relative to vehicle group [2, 3]: 1.12
- H2-Eb1 mean expression value relative to vehicle group [2, 3]: 1.66
- Icos mean expression value relative to vehicle group [2, 3]: 6.03
- Ifng mean expression value relative to vehicle group [2, 3]: 2.74
- Il2 mean expression value relative to vehicle group [2, 3]: 0.60
- Lck mean expression value relative to vehicle group [2, 3]: 1.36
- Lcp2 mean expression value relative to vehicle group [2, 3]: 0.40
- Nfatc2 mean expression value relative to vehicle group [2, 3]: 0.34
- Pdcd1 mean expression value relative to vehicle group [2, 3]: 0.75
- Ptpn22 mean expression value relative to vehicle group [2, 3]: 1.16
- Ptprc mean expression value relative to vehicle group [2, 3]: 2.25
- Zap70 mean expression value relative to vehicle group [2, 3]: 1.46
- B2m mean expression value relative to vehicle group [2, 4]: 0.32
- Bst2 mean expression value relative to vehicle group [2, 4]: 0.75
- Cd44 mean expression value relative to vehicle group [2, 4]: −0.26
- Ciita mean expression value relative to vehicle group [2, 4]: 0.62
- Fcgr1 mean expression value relative to vehicle group [2, 4]: 1.56
- Gm10499 mean expression value relative to vehicle group [2, 4]: 0.04
- H2-Aa mean expression value relative to vehicle group [2, 4]: 1.59
- H2-Ab1 mean expression value relative to vehicle group [2, 4]: 1.12
- H2-Eb1 mean expression value relative to vehicle group [2, 4]: 1.66
- H2-K1 mean expression value relative to vehicle group [2, 4]: 0.26
- H2-Q10 mean expression value relative to vehicle group [2, 4]: 0.32
- Icam1 mean expression value relative to vehicle group [2, 4]: 0.43
- Ifi35 mean expression value relative to vehicle group [2, 4]: 0.62
- Ifit2 mean expression value relative to vehicle group [2, 4]: 0.25
- Ifitm1 mean expression value relative to vehicle group [2, 4]: 0.38
- Ifna2 mean expression value relative to vehicle group [2, 4]: 0
- Ifnar1 mean expression value relative to vehicle group [2, 4]: −0.01
- Ifnar2 mean expression value relative to vehicle group [2, 4]: 0.39
- Ifnb1 mean expression value relative to vehicle group [2, 4]: 0.12
- Ifng mean expression value relative to vehicle group [2, 4]: 2.74
- Ifngr1 mean expression value relative to vehicle group [2, 4]: 0.84
- Irf1 mean expression value relative to vehicle group [2, 4]: 0.3
- Irf4 mean expression value relative to vehicle group [2, 4]: 1.23
- Irf5 mean expression value relative to vehicle group [2, 4]: 0.02
- Irf8 mean expression value relative to vehicle group [2, 4]: 0.38
- Mx1 mean expression value relative to vehicle group [2, 4]: 1.14
- Ncam1 mean expression value relative to vehicle group [2, 4]: 0.14
- Pml mean expression value relative to vehicle group [2, 4]: 0.19
- Ptpn6 mean expression value relative to vehicle group [2, 4]: 0.25
- Socs3 mean expression value relative to vehicle group [2, 4]: −0.24
- Tyk2 mean expression value relative to vehicle group [2, 4]: −0.16
- Vcam1 mean expression value relative to vehicle group [2, 4]: 0.52
- B2m mean expression value relative to vehicle group [2, 5]: 0.32
- Btk mean expression value relative to vehicle group [2, 5]: 0.42
- Cd14 mean expression value relative to vehicle group [2, 5]: 0.26
- Cd36 mean expression value relative to vehicle group [2, 5]: 4.37
- Cd74 mean expression value relative to vehicle group [2, 5]: 1.18
- Ctsc mean expression value relative to vehicle group [2, 5]: 0.36
- Ctss mean expression value relative to vehicle group [2, 5]: 2.29
- Cybb mean expression value relative to vehicle group [2, 5]: 1.66
- Fcgr1 mean expression value relative to vehicle group [2, 5]: 1.56
- H2-Aa mean expression value relative to vehicle group [2, 5]: 1.59
- H2-Ab1 mean expression value relative to vehicle group [2, 5]: 1.12
- H2-DMa mean expression value relative to vehicle group [2, 5]: 1.18
- H2-DMb2 mean expression value relative to vehicle group [2, 5]: 0.84
- H2-Ea-ps mean expression value relative to vehicle group [2, 5]: 0
- H2-Eb1 mean expression value relative to vehicle group [2, 5]: 1.66
- H2-K1 mean expression value relative to vehicle group [2, 5]: 0.26
- H2-Ob mean expression value relative to vehicle group [2, 5]: 2.19
- H2-Q10 mean expression value relative to vehicle group [2, 5]: 0.32
- Ly96 mean expression value relative to vehicle group [2, 5]: 0.58
- Ncf4 mean expression value relative to vehicle group [2, 5]: 0.62
- Psmb9 mean expression value relative to vehicle group [2, 5]: 0.6
- Tap1 mean expression value relative to vehicle group [2, 5]: 0.51
- Tlr1 mean expression value relative to vehicle group [2, 5]: 0.51
- Tlr2 mean expression value relative to vehicle group [2, 5]: 0.12
- Tlr4 mean expression value relative to vehicle group [2, 5]: 1.1
- Esm1 expression, a target of VEGF signaling ([2]; tumors): decrease
- expression of genes associated with cytotoxic immune cell function, T cell activation, and antigen presentation ([2]; tumors): Increased expression
